This is an account of results in ChEMBL document CHEMBL1122947, “Fluorine-containing amino acids and their derivatives. 4. Synthesis and antibacterial activity of threo and erythro 1-fluorodehydroxylated chloramphenicol analogues” (1985).

One experiment concerns Staphylococcus aureus. As to the kind of experiment: In vitro antibacterial activity against Staphylococcus aureus. The experiment is classed as functional.
For another experiment, the system named is Trichophyton asteroides. Description: In vitro antifungal activity against Trichophyton asteroides.
The next experiment relates to Aspergillus fumigatus. Description: In vitro antifungal activity against Aspergillus fumigatus. In kind it is functional.
Another experiment concerns Trichophyton benhamiae. Description: In vitro antifungal activity against Trichophyton asteroides. In kind it is functional.
For the next experiment, the system named is Escherichia coli. Description: In vitro antibacterial activity against Escherichia coli. In kind it is functional.
A further experiment deals with Streptococcus pyogenes. As to the kind of experiment: In vitro antibacterial activity against Streptococcus pyogenes. In kind it is functional.
In the next experiment the test system is Klebsiella pneumoniae. Description: In vitro antibacterial activity against Klebsiella pneumoniae. The experiment is classed as functional.
For a further experiment, the system named is Pseudomonas aeruginosa. As to the kind of experiment: In vitro antibacterial activity against Pseudomonas aeruginosa. The experiment is classed as functional.
The mark [1] stands for this setting: Klebsiella pneumoniae, read-out: MIC.

≈ marks a conversion by molar mass, not a printed value.

Regarding `O=C(NC(CO)C(F)c1ccccc1)C(Cl)Cl` (stereo not drawn), the MIC in the experiment with Staphylococcus aureus, in the experiment on Trichophyton asteroides, against Aspergillus fumigatus, against Trichophyton benhamiae, with Escherichia coli and against Streptococcus pyogenes was above 100 µg/mL each time. The MIC in the experiment on Klebsiella pneumoniae (setting [1]) and against Pseudomonas aeruginosa was above 100 µg/mL each time.

For `O=C(NC(CO)C(F)c1ccc([N+](=O)[O-])cc1)C(Cl)Cl` (stereo in doubt; 11), the MIC against Staphylococcus aureus, against Trichophyton asteroides, with Aspergillus fumigatus, against Trichophyton benhamiae, in the experiment with Escherichia coli and against Streptococcus pyogenes was above 100 µg/mL in each case. Also, the MIC in the experiment on Klebsiella pneumoniae (setting [1]) was 50 µg/mL (≈ 154 µM); in the experiment on Pseudomonas aeruginosa, above 100 µg/mL.

In the case of `O=C(NC(CO)C(F)c1ccccc1[N+](=O)[O-])C(Cl)Cl` (stereo not drawn), the MIC against Staphylococcus aureus, in the experiment on Trichophyton asteroides, in the experiment on Aspergillus fumigatus, against Trichophyton benhamiae, in the experiment on Escherichia coli and in the experiment with Streptococcus pyogenes was above 100 µg/mL in each case. Also, the MIC with Klebsiella pneumoniae (setting [1]) and against Pseudomonas aeruginosa was above 100 µg/mL each time.

On to `O=C(NC(CO)C(F)c1ccc([N+](=O)[O-])cc1)C(Cl)Cl` (stereo in doubt; 3), for which the minimum inhibitory concentration (MIC) in the experiment on Klebsiella pneumoniae is above 100 µg/mL.

With `O=C(NC(CO)C(F)c1cccc([N+](=O)[O-])c1)C(Cl)Cl` (stereo not drawn), the MIC against Staphylococcus aureus, against Trichophyton asteroides, against Aspergillus fumigatus, against Trichophyton benhamiae, against Escherichia coli and with Streptococcus pyogenes was above 100 µg/mL each time. The MIC with Klebsiella pneumoniae (setting [1]) and with Pseudomonas aeruginosa was above 100 µg/mL throughout.
